The values below come from patent US11771702B2, “Agonists of PPAR-δ” (priority 2018, dated 2023).

Test [1] has as its target T1, PPAR-δ (Homo sapiens, UniProt Q03181).
T1 sequence (Q03181 1-441): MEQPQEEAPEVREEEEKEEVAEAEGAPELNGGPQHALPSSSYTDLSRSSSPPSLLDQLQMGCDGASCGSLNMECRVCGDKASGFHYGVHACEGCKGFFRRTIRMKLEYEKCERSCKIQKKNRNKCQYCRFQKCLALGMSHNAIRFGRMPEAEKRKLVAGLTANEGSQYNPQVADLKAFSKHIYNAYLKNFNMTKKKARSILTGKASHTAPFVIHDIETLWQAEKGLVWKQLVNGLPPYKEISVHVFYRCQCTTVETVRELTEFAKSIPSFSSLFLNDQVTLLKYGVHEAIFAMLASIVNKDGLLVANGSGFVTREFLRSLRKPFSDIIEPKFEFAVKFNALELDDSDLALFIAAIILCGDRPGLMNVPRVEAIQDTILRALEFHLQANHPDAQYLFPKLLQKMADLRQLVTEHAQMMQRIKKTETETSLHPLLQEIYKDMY
Particulars: ligand of the PDB complex, published EC50; cited from earlier work.

Test [2] addresses T2, PPAR-δ (Homo sapiens, UniProt Q03181).
T2 construct: hPPARδ/LBD encoding amino acids 147-441; expressed in transfected cells; host or cells: HEK293T
T2 sequence (Q03181 147-441): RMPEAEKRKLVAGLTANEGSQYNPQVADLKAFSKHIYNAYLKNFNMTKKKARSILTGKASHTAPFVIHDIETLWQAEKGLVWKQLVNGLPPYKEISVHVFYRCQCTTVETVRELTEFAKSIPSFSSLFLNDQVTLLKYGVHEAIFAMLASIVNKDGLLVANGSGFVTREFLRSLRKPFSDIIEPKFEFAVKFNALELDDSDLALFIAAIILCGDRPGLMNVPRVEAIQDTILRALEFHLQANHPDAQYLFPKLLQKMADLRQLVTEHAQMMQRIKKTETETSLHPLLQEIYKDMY
Description: GAL4-DBD/PPAR-LBD luciferase reporter agonist assay in HEK293T cells, PPAR-δ. The test is classed as cell-based. Particulars: for PPAR subtype selectivity: PPAR-δ vs PPAR-α and PPAR-γ. On the procedure: (§1) Measuring molecular agonist activities—a GAL4-DNA Binding Domain (GAL4-DBD) fusion protein was constructed for each PPAR family member. To assess compound activity, each construct was co-transfected into HEK293T cells (American Type Culture Collection; Manassas, Va.) along with the reporter construct, pGL5 (Promega) using Fugene 6 (Promega) as a transfection reagent and the manufacturer's protocol. An eleven-point dilution series of each compound was added to the cells and incubated overnight. Luciferase levels were then determined following the addition of Bright-Glo (Promega) using the manufacturer's recommendations.
(In a reporter assay the amount or activity of a reporter protein is the signal.)

Test [3] has as its target T3, PPAR-α (Homo sapiens, UniProt Q07869).
T3 construct: hPPARα/LBD encoding amino acids 175-468; expressed in transfected cells; host or cells: HEK293T
T3 sequence (Q07869 175-468): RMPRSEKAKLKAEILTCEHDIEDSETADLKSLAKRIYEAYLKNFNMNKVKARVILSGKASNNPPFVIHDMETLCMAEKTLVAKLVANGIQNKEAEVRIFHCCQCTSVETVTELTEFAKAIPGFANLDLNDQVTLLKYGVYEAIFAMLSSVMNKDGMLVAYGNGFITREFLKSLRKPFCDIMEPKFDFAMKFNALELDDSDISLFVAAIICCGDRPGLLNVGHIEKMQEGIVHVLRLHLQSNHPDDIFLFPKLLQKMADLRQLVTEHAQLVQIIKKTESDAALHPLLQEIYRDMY
Description: GAL4-DBD/PPAR-LBD luciferase reporter agonist assay in HEK293T cells, PPAR-α. The test is classed as cell-based. The procedure:
as §1

Test [4] addresses T4, PPAR-γ (Homo sapiens, UniProt P37231).
T4 construct: hPPARγ/LBD encoding amino acids 184-477; expressed in transfected cells; host or cells: HEK293T
T4 sequence (P37231 184-477 isoform P37231-2): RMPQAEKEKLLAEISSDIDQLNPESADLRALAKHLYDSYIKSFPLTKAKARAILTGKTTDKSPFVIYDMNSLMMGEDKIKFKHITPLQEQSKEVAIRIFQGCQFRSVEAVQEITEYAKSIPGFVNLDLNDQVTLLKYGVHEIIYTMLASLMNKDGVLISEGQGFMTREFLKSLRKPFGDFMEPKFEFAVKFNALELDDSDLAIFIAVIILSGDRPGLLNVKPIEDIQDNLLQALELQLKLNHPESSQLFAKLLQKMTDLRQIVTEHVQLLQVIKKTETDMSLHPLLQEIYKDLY
Description: GAL4-DBD/PPAR-LBD luciferase reporter agonist assay in HEK293T cells, PPAR-γ. The test is classed as cell-based. The procedure:
as §1

Setting [5] is: Table 10 (PPAR-δ), read-out: PPAR-δ EC50.

Like-named read-outs stand apart in the source and are kept apart here. Where only a bound is given, the exact number is not on record here.

One may read the EC50 as the concentration giving half of the maximal effect. As to `CC/C=C\C/C=C\C/C=C\C/C=C\C/C=C\CCCC(=O)O` [3GXW], the EC50 in test [1] is 4 µM.
For `O=C(COc1ccc(C(=O)O)cc1)NC(c1ccccc1)c1ccc(Cl)cc1` (stereo not shown) [GNF-0248], the concentration giving a half-maximal response (EC50) in test [2] (Table 10) came to 7.55 µM; in test [3] (Table 10), 7.04 µM.
Take `Cc1ccc(C(=O)Nc2cccc(CNCc3ccc(OC(F)(F)F)cc3)c2)cc1` [GNF-0341]: the “PPAR subtype selectivity” value in test [2] is “agonists of PPAR-δ and PPAR-γ only”. The EC50 is 0.011 µM in test [2] (Table 9) and 1.26 µM in test [4] (Table 9, read-out: PPAR-γ EC50).
Regarding `O=C(O)Cc1csc(SCc2cc(F)cc3c2OC(c2ccccc2)OC3)n1` (stereo not shown) [GNF-1051], the EC50 in test [2] (Table 10) was found to be 7.76 µM; in test [3] (Table 10) it was 7.33 µM.
Take `CCCOc1c(/C=C/C(=O)c2ccc(SCC(=O)O)c(OC)c2)cccc1OCC` [GNF-1676]: the concentration giving a half-maximal response (EC50) in test [2] (Table 10) was 8.39 µM; in test [3] (Table 10), 6.2 µM; in test [4] (setting [5]), 1.29 µM.
Take `O=C(NCc1ccc(COCC(F)(F)F)cc1)c1cc(-c2ccccc2)[nH]n1` [GNF-3632]: the “PPAR subtype selectivity” value in test [2] is “agonists of PPAR-δ and PPAR-α only”. Moreover, the results for the EC50 in test [2] (Table 9) and in test [3] (Table 9) were 0.007 µM and 5.48 µM, respectively.
For the molecule `CCOc1cc(/C=C/C(=O)O)ccc1OCc1ccc(C(C)(C)C)cc1` [GNF-4516], the EC50 in test [2] (Table 10) was 6.82 µM; in test [3] (Table 10) it was 2.33 µM.
As to `COc1ccc(C(=O)/C=C/c2c(C)nn(-c3ccccc3)c2Cl)cc1CSCC(=O)O` [GNF-4909], the EC50 in test [2] (Table 10) is 8.24 µM; in test [3] (Table 10) it was 0.825 µM; in test [4] (setting [5]), 1.83 µM.
Taken in the same sequence, the figures for `COCCCn1c(SCc2cccc(C(=O)O)c2)nc2sc3c(c2c1=O)CCCS3` [GNF-5154] were 7.04 µM, > 10 µM and > 10 µM.
As for `CCc1cc(C(c2cccc(OC)c2)N2CCN(CCO)CC2)c(NC(=O)c2ccccc2)s1` (stereo not shown) [GNF-5295], the “PPAR subtype selectivity” value in test [2] is “agonists of PPAR-δ and PPAR-γ only”. The EC50 is 0.013 µM in test [2] (Table 9); > 10 µM in test [3] (Table 9); 7.28 µM in test [4] (Table 9, read-out: PPAR-γ EC50).
Consider `COc1cc(/C=C2/S/C(=N/c3ccccc3)NC2=O)ccc1OCc1cccc(C(=O)O)c1` [GNF-5758], for which the half-maximal effective concentration (EC50) is 4.33 µM in test [2] (Table 10), 6.93 µM in test [3] (Table 10) and 9.73 µM in test [4] (setting [5]).
For `O=C(Nc1ccccc1O)C1CCN(C(=O)COc2ccc(F)cc2)CC1` [GNF-5891], the EC50 was 0.017 µM in test [2] (Table 9) and > 10 µM in test [4] (Table 9, read-out: PPAR-γ EC50).
In test [2] (Table 9), `O=C(Nc1cccc(CNCC(c2cccs2)N2CCOCC2)c1)c1ccc(Cl)cc1` (stereo not shown) [GNF-6029] registered an EC50 of 0.012 µM.
In test [2] (Table 9), `CCOc1cccc(/C=N/c2cccc(-c3csc(/N=C/c4cccc(OCC)c4O)n3)c2)c1O` [GNF-6878] showed an EC50 of 0.008 µM.
Turning to `O=C(OCC(=O)c1ccc(O)cc1O)c1ccc(COc2ccc3ccccc3c2)o1` [GNF-6928], the EC50 in test [2] (Table 10) is 3.7 µM; in test [3] (Table 10) it was 6.9 µM; in test [4] (setting [5]), 3.78 µM.
Take `COc1cc(CNCc2cc(C)on2)ccc1OCC(=O)Nc1ccc(Br)cc1` [GNF-6952]: in test [2], the “PPAR subtype selectivity” value is “agonists of PPAR-δ and PPAR-α only”. Further, the values for the EC50 in test [2] (Table 9) and in test [3] (Table 9) were 0.019 µM and 7.56 µM, respectively.
In turn, `O=C(NCCCCOc1ccc(F)cc1)c1ccc([N+](=O)[O-])c(O)c1` [GNF-7176] had an EC50 in test [2] (Table 10) of 7.24 µM.
In test [2] (Table 9), `COc1ccc(N2CCN(C(=O)CSc3nnc(COc4ccc(Cl)cc4C)[nH]3)CC2)cc1` [GNF-7486] showed an EC50 of 0.018 µM.
`CC(C(=O)Nc1ccc(SC(F)F)cc1)N1CC=C(c2ccc(O)cc2)CC1` (stereo not shown) [GNF-8208] showed an EC50 in test [2] (Table 10) of 7.86 µM.
For the molecule `O=C(CN1CCN(c2ccc(O)cc2)CC1)NCC1(N2CCOCC2)CCCCC1` [GNF-8501], in test [2] (Table 9), the EC50 was determined as 0.006 µM.
`CCOC(=O)NC(=O)COC(=O)c1c2c(nc3ccccc13)/C(=C\c1ccc(OC)cc1)CC(C)C2` (stereo not shown) [GNF-8560]: in test [2], the “PPAR subtype selectivity” value is given as “pan-agonist”. Also, the concentration giving a half-maximal response (EC50) in test [2] (Table 9) turned out to be 0.011 µM; in test [3] (Table 9), 1.41 µM; in test [4] (Table 9, read-out: PPAR-γ EC50) it was 3.53 µM.
Turning to `Cc1cc(C(=O)COc2ccc(C(=O)O)cc2)c(C)n1CCC1=CCCCC1` [GNF-9057], the EC50 in test [2] (Table 10) was found to be 7.49 µM; in test [3] (Table 10) it was 4.63 µM; in test [4] (setting [5]), 8.6 µM.
For the molecule `O=C(Nc1ccccc1O)C1CCN(C(=O)c2ccc(OCC3CCCO3)cc2)CC1` (stereo not shown) [GNF-9448], the EC50 in test [2] (Table 9) was determined as 0.883 µM; in test [3] (Table 9), 7.06 µM; in test [4] (Table 9, read-out: PPAR-γ EC50), 0.937 µM.
In turn, `O=[N+]([O-])c1cc(S(=O)(=O)N2CCCC2)ccc1OCC(O)CNCc1ccc(F)cc1` (stereo not shown) [GNF-9594] returned an EC50 in test [2] (Table 10) of 4.6 µM.
In test [2] (Table 9), `Cc1ccc(-c2nc(SCCCC(=O)N3CCOCC3)[nH]c2-c2ccc(C)cc2)cc1` [GNF-9820] gave an EC50 of 0.012 µM.
In the case of `Cc1cc(C(=O)COC(=O)c2ccc(O)cc2O)c(C)n1Cc1ccc(F)cc1` [GNF-9969], the EC50 is 9.48 µM in test [2] (Table 10), 6.94 µM in test [3] (Table 10) and 1.01 µM in test [4] (setting [5]).
